Reference: patent US4766140A, “Method of inhibiting aromatase” (Eli Lilly and Company, priority 1984, dated 1988)

What was measured:
aromatase = target: T1, aromatase (Rattus norvegicus, UniProt P22443); assay: Aromatase inhibition in the rat ovarian microsome assay; format: biochemical; settings: rat ovarian microsomes; substrate (androstenedione) concentration 0.1 μM
T1 construct: ovarian microsomes are obtained from rats treated with pregnant mares serum gonadotropin; from tissue; host or cells: ovarian microsomes from rats treated with pregnant mares serum gonadotropin
T1 sequence (P22443 1-508): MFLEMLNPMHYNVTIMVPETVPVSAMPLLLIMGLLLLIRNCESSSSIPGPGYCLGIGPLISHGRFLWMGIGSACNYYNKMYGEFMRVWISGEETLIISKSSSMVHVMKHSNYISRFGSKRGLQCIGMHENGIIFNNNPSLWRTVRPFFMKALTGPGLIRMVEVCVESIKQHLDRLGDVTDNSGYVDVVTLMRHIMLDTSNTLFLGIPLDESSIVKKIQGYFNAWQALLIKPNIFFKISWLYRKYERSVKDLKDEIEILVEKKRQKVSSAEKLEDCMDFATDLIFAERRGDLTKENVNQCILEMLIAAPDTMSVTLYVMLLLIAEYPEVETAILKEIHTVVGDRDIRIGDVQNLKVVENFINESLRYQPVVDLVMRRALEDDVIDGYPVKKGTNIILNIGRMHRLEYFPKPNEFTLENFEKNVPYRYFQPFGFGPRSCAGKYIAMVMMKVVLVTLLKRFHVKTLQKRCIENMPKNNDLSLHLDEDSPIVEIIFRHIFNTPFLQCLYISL
Experimental: In this test system, ovarian microsomes are obtained from rats treated with pregnant mares serum gonadotropin. Test compounds are added to reaction vials containing 0.1 μM 4-androstene-3,17-dione, 100,000 dpm 1,2[^3 H]-androstenedione, the microsomes and a NADPH generating system. The concentrations of the inhibitors tested ranged between 0.005 and 10 μM.

[1] = test system: DMBA-induced mammary tumors; assay: DMBA-Induced Mammary Tumor Inhibition; format: in vivo, female Sprague-Dawley rats; settings: 4 mg/kg daily subcutaneously, Test No. I
Experimental: Mammary tumors were produced in female Sprague-Dawley rats which were 50-60 days old by the gavage administration of 20 mg of 7,12-dimethylbenz[a]anthracene (DMBA). About six weeks after DMBA administration, the mammary glands were palpated at weekly intervals for the appearance of tumors. Whenever one or more tumors appeared and were measurable in an animal, that animal was selected for experimentation. […] Each control and test group contained 8 animals. The test compound was dissolved in corn oil and administered subcutaneously once daily. Every experiment included a group of control rats having tumors and were given corn oil vehicle subcutaneously. […] The area of each tumor was calculated by multiplying the shortest and longest diameters of the tumor. The treatment and measurement of animals continued for 3 weeks at which time the final areas of the tumors were determined. The change in the mean tumor area was determined, and the mean change was analyzed for its significance using Dunnett's t-test.

SMILES	EC50 (aromatase) [µM]	Mean Tumor Area, Finish ([1]; after 3 weeks, statistically different from control, p < 0.05 (control 392.0)) [mm^2]	Mean Tumor Area, Start ([1]; start of test) [mm^2]
c1ccc(CCCn2ccnc2)cc1 [1-(3-phenylpropyl)imidazole]	0.49	–	–
C=CCOC(Cn1ccnc1)c1ccc(Cl)cc1Cl (centres unmarked) [1-[2-(2,4-dichlorophenyl)-2-(2-propenyloxy)ethyl]-1H-imidazole]	0.042	119.0	55.2
COc1ccc(OC)c(C(O)Cn2ccnc2)c1 (stereo not drawn) [α-(2,5-dimethoxyphenyl)-1H-imidazole-1-ethanol nitrate]	1.5	–	–

Continued, in another order:

EC50 (aromatase) [µM]	SMILES	Mean Tumor Area, Finish ([1]; after 3 weeks, statistically different from control, p < 0.05 (control 392.0)) [mm^2]	Mean Tumor Area, Start ([1]; start of test) [mm^2]
0.63	c1ccc(CCn2ccnc2)cc1 [1-(β-phenylethyl)imidazole]	–	–
0.06	Clc1ccc(C(Cn2ccnc2)OCc2ccsc2Cl)c(Cl)c1 (centres unmarked) [1-(2-[(2-chloro-3-thienyl)-methoxy]-2-[2,4-dichlorophenyl]-ethyl)-1H-imidazole]	–	–
< 0.05	O=[N+]([O-])c1ccc(CCn2ccnc2)cc1 [1-[2-(4-nitrophenyl)ethyl]-1H-imidazole]	–	–
